Data reported in US11008295B2, “Compounds having antiinfective, antitumoral and antifungal activity” (priority 2017, dated 2021).

Experiments:
Assay in all cases: Kirby-Bauer disk diffusion susceptibility test
[1] = tested on: N. carnea; type: cell-based, Nocardia carnea
Method: (§1) Bacterial strains, from clinical origin, were supplied by the National Center for Microbiology, Institute of Health Carlos III (Majadahonda, Madrid). They are detailed in Table I.
(§2) Bacterial cells suspension in sterile saline was prepared from a culture of 24-72 h, depending on bacterial species, in Mueller-Hinton Agar with 5% sheep blood. Each suspension was adjusted to a fixed size inoculum of 1-5×10^8 CFU/ml with a spectrophotometer (Ferraro, M J National Committee for Clinical Laboratory Standards. 2000).
(§3) Kirby-Bauer disk diffusion susceptibility test protocol was utilized to determine the sensitivity or resistance of pathogenic bacteria against the compounds and others antibiotics. The absence of growth around the disks is an indirect measure of the ability of this compound to inhibit an organism (Kirby, W. et al., Antibiotics Annu. 1956-1957:892). After 18 to 72 hours of incubation at […], with or without CO2, under aerobic or anaerobic conditions, depending on the bacterial species, halo of growth inhibition were obtained and evaluated.
(§4) Interpretation of susceptibility and resistance was based on the presence or absence of a zone of inhibition surrounding the disk. Kirby-Bauer disk diffusion susceptibility test is a common method which uses antibiotic-impregnated wafers to test whether bacteria are affected by antibiotics. The size of the zone of inhibition depends on how effective the antibiotic is at stopping the growth of the bacterium. A stronger antibiotic will create a larger zone, because a lower concentration of the antibiotic is enough to stop growth.

[2] = tested on: N. cyriacigeorgica; type: cell-based
Method: as §1, §2, §3, §4

[3] = tested on: S. aureus; type: cell-based
Method: as §1, §2, §3, §4

[4] = tested on: E. faecium; type: cell-based
Method: as §1, §2, §3, §4

[5] = tested on: A. baumannii; type: cell-based
Method: as §1, §2, §3, §4

[6] = tested on: S. epidermidis; type: cell-based
Method: as §1, §2, §3, §4

[7] = tested on: P. aeruginosa; type: cell-based
Method: as §1, §2, §3, §4

[8] = tested on: E. faecalis; type: cell-based
Method: as §1, §2, §3, §4

[9] = tested on: E. coli; type: cell-based
Method: as §1, §2, §3, §4

[10] = tested on: T. pulmonis; type: cell-based, Tsukamurella pulmonis
Method: as §1, §2, §3, §4

[11] = tested on: B. cereus; type: cell-based, Bacillus cereus
Method: as §1, §2, §3, §4

[12] = tested on: M. chelonae; type: cell-based; conditions: M. chelonae strain 870, isolation year 2011
Method: as §1, §2, §3, §4

[13] = tested on: M. fortuitum; type: cell-based; conditions: M. fortuitum strain 1080, isolation year 2011
Method: as §1, §2, §3, §4

[14] = tested on: M. abscessus; type: cell-based, Mycobacterium abscessus; conditions: M. abscessus strain 690, isolation year 2012
Method: as §1, §2, §3, §4

[15] = N. carnea strain 40, isolation year 2011
[16] = N. carnea strain 769, isolation year 2009
[17] = N cyriacigeorgica strain 199, isolation year 2005
[18] = N. cyriacigeorgica strain 30, isolation year 2005
[19] = S. aureus strain 282, isolation year 2005
[20] = S. aureus strain 890, isolation year 2010
[21] = E. faecium strain 26, isolation year 2012
[22] = E. faecium strain 209, isolation year 2015
[23] = A. baumannii strain 300, isolation year 2001
[24] = A. baumannii strain 1301, isolation year 2009
[25] = S. epidermidis strain 188, isolation year 2009
[26] = S. epidermidis strain 982, isolation year 2006
[27] = P. aeruginosa strain 96, isolation year 2014
[28] = P. aeruginosa strain 115, isolation year 2013
[29] = E. faecalis strain 52, isolation year 2006
[30] = E. faecalis strain 1052, isolation year 2008
[31] = E. coli strain 29, isolation year 2012
[32] = E. coli strain 305, isolation year 2008
[33] = T. pulmonis strain 40, isolation year 2015
[34] = T. pulmonis strain 1991, isolation year 2009
[35] = B. cereus strain 25, isolation year 2014
[36] = B. cereus strain 182, isolation year 2013
Further: key: I = intermediate activity; S = susceptibility; R = Resistance.

Row | SMILES | Sensitivity or resistance of the strain to the antibiotic [1, 15] | Sensitivity or resistance of the strain to the antibiotic [1, 16] | Sensitivity or resistance of the strain to the antibiotic [2, 17] | Sensitivity or resistance of the strain to the antibiotic [2, 18] | Sensitivity or resistance of the strain to the antibiotic [3, 19] | Sensitivity or resistance of the strain to the antibiotic [3, 20] | Sensitivity or resistance of the strain to the antibiotic [4, 21] | Sensitivity or resistance of the strain to the antibiotic [4, 22] | Sensitivity or resistance of the strain to the antibiotic [5, 23] | Sensitivity or resistance of the strain to the antibiotic [5, 24] | Sensitivity or resistance of the strain to the antibiotic [6, 25] | Sensitivity or resistance of the strain to the antibiotic [6, 26] | Sensitivity or resistance of the strain to the antibiotic [7, 27] | Sensitivity or resistance of the strain to the antibiotic [7, 28] | Sensitivity or resistance of the strain to the antibiotic [8, 29] | Sensitivity or resistance of the strain to the antibiotic [8, 30] | Sensitivity or resistance of the strain to the antibiotic [9, 31] | Sensitivity or resistance of the strain to the antibiotic [9, 32] | Sensitivity or resistance of the strain to the antibiotic [10, 33] | Sensitivity or resistance of the strain to the antibiotic [10, 34] | also measured
1 | NCC[C@H](O)C(=O)N[C@@H]1C[C@H](N)[C@@H](O[C@H]2O[C@H](CN)[C@@H](O)[C@H](O)[C@H]2O)[C@H](O)[C@H]1O[C@H]1O[C@H](CO)[C@@H](O)[C@H](N)[C@H]1O [AMK, Amikacin] | R | S | R | S | S | S | S | R | R | S | S | S | S | S | S | S | S | S | R | S | –
2 | CO/N=C(\C(=O)N[C@@H]1C(=O)N2C(C(=O)O)=C(CSc3nc(=O)c(O)nn3C)CS[C@H]12)c1csc(N)n1 [CEF, Ceftriazone] | – | – | – | – | – | – | – | – | R | R | – | – | R | – | – | – | – | – | – | – | –
3 | CCC[C@@H]1C[C@@H](C(=O)N[C@@H]([C@H]2O[C@H](SC)[C@H](O)[C@@H](O)[C@H]2O)[C@H](C)Cl)N(C)C1 [CLI, Clindamycin] | – | – | – | – | R | R | – | – | – | – | S | R | – | – | – | – | – | – | – | – | Sensitivity or resistance of the strain to the antibiotic [11, 35]: R; Sensitivity or resistance of the strain to the antibiotic [11, 36]: R
4 | CO/N=C(\C(=O)N[C@@H]1C(=O)N2C(C(=O)O)=C(COC(C)=O)CS[C@H]12)c1csc(N)n1 [CTX, Cefotaxime] | S | S | R | S | – | – | R | R | – | – | – | – | S | S | R | R | S | R | R | S | –
5 | CC[C@H]1OC(=O)[C@H](C)[C@@H](O[C@H]2C[C@@](C)(OC)[C@@H](O)[C@H](C)O2)[C@H](C)[C@@H](O[C@@H]2O[C@H](C)C[C@H](N(C)C)[C@H]2O)[C@](C)(O)C[C@@H](C)C(=O)[C@H](C)[C@@H](O)[C@]1(C)O [ERI, Erythromycin] | R | R | R | R | R | R | – | – | – | – | S | R | – | – | – | – | S | S | R | S | Sensitivity or resistance of the strain to the antibiotic [12]: R; Sensitivity or resistance of the strain to the antibiotic [13]: R; Sensitivity or resistance of the strain to the antibiotic [11, 35]: R; Sensitivity or resistance of the strain to the antibiotic [11, 36]: R; Sensitivity or resistance of the strain to the antibiotic [14]: S
6 | C[C@@H](O)[C@H]1C(=O)N2C(C(=O)O)=C(S[C@@H]3CN[C@H](C(=O)N(C)C)C3)[C@H](C)[C@H]12 [MER, Meropenem] | – | – | – | – | – | – | – | – | R | S | – | – | R | – | – | – | – | – | – | – | –
